Assays:
human NHE3 = target: T1, human NHE3 (Homo sapiens, UniProt P48764); experiment: In vitro NHE3 inhibition activity (intracellular pH recovery, BCECF-AM, NHD C8 cells overexpressing human NHE3); type: cell-based; details: geometric mean of individual IC50
T1 construct: myc; expressed in transfected cells
T1 sequence (P48764 26-834): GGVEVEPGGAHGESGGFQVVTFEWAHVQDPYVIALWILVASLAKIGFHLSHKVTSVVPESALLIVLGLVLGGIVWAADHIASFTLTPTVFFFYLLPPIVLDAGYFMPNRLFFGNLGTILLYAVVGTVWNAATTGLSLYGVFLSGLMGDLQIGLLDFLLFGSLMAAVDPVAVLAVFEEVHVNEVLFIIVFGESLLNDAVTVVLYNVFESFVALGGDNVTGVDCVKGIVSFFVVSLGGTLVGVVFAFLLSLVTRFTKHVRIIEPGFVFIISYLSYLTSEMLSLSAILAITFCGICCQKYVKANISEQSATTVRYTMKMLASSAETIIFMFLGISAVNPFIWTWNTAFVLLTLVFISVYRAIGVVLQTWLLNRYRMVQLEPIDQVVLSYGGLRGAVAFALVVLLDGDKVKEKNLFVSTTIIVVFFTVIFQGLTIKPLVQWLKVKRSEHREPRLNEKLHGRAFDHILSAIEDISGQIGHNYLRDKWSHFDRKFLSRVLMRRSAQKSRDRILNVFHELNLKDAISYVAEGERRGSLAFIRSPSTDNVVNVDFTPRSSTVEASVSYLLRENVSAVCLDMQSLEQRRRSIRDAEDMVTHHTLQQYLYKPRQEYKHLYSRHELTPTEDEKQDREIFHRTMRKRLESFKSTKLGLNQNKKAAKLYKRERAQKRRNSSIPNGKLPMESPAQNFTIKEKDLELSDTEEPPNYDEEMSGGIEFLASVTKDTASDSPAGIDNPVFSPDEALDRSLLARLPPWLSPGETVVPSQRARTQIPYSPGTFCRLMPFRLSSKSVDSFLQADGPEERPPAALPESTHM
Text: In Vitro NHE3 Inhibition Activity
To create an NHE3 assay, cells selectively expressing NHE3 are generated by overexpressing human NHE3 in an endogenously NHE-deficient cell line. The NHE-deficient cell line is created by chemical-induced mutagenesis. After the mutagenesis, NHE-deficient cells are selected by subjecting lithium (Li) loaded cells to an acidic extracellular environment. Under these conditions, NHE exchanges intracellular Li^+ for extracellular protons, thus only NHE-deficient cells can avoid a toxic intracellular acidosis and survive.
An NHE-deficient cell line, NHD C8, is generated by mutagenesis and selection from the cell line Dede (ATCC® CCL-39™). The mutagenesis is induced by treating Dede CCL-39 cells with EMS (Sigma-Aldrich) in growth media at a final concentration of 500 μg/ml for 20 h. […]
To measure NHE activity, the intracellular pH of the cells is reduced by addition of NH4Cl. The sodium-dependent intracellular pH change is then measured by the intracellular pH-sensitive fluorescein dye, BCECF-AM (Molecular Probes-ThermoFisher Scientific). […] The plate is immediately read for fluorescent intensity at an excitation wavelength of 505 nm and emission wavelength of 550 nm. […]

Male Sprague-Dawley rats = experiment: Effect of Example 1 on sodium absorption (urinary sodium excretion after oral NaCl bolus); type: in vivo, rat; details: 2 h urine; for Urinary Sodium to Creatinine Ratio: mean ± SEM
Method: Effect of Example 1 on Sodium Absorption
Urinary sodium excretion following an oral bolus dose of sodium chloride is an indirect measure of sodium absorption in the intestine.
Male Sprague-Dawley with body weights ranging from 200 to 250 g are randomized into groups based on equal mean body weights. Henceforth the following formulation is referred to as “1% HEC”: 1% hydroxyethyl cellulose (HEC) and 0.25% Tween® 80 with antifoam vehicle in water. Example 1 at 0.1 mg/mL (final dose 1 mg/kg dosed in 10 mL/kg volume) is formulated with 1% HEC in a glass vial containing a pre-weighed amount of compound, and then probe sonicating until it appears as a uniform suspension. […] The subsequent dosing solutions of Example 1 are prepared by serial dilutions with 1% HEC. NaCl at 10 mg/ml (final dose 200 mg/kg dosed in 20 ml/kg volume) is formulated by adding sterile water.
On the day before the study, the animals are placed into clean cages without food but with access to water for an overnight fast. On the day of the study, rats are orally dosed with vehicle or varying doses of Example 1. 30 min later, animals are dosed with NaCl, then immediately transferred to metabolic cages. Urine samples are collected for 2 h. Net urine volume is recorded. Urinary sodium, and creatinine are assessed using a clinical biochemistry analyzer.
Values expressed as the ratio of urinary sodium to creatinine (mM/mM) are calculated and presented as mean±SEM. The curves are fitted with 4-parameter logistic curve fitting tool GraphPad Prism 6 to calculate the ED50. For the purpose of curve fitting, the dose of Example 1 is artificially set to 0.001 mg/kg in the software for the vehicle-alone group.

CN1Cc2c(Cl)cc(Cl)cc2[C@H](c2cccc(S(=O)(=O)NCCOCCOCCN/C(=N\C#N)NCCCCN/C(=N/C#N)NCCOCCOCCNS(=O)(=O)c3cccc([C@@H]4CN(C)Cc5c(Cl)cc(Cl)cc54)c3)c2)C1 [Example 1, 2-Cyano-1-[4-[[N′-cyano-N-[2-[2-[2-[[3-[(4S)-6,8-dichloro-2-methyl-3,4-dihydro-1H-isoquinolin-4-yl]phenyl]sulfonylamino]ethoxy]ethoxy]ethyl]carbamimidoyl]amino]butyl]-3-[2-[2-[2-[[3-[(4S)-6,8-dichloro-2-methyl-3,4-dihydro-1H-isoquinolin-4-yl]phenyl]sulfonylamino]ethoxy]ethoxy]ethyl]guanidine]
IC50 (human NHE3): 37.9 nM
ED50 (Male Sprague-Dawley rats; Rattus norvegicus, oral, NaCl bolus 200 mg/kg): 0.058 mg/kg
Urinary Sodium to Creatinine Ratio (Male Sprague-Dawley rats; oral 0.03 mg/kg): 1.19 ± 0.19 mM/mM
Urinary Sodium to Creatinine Ratio (Male Sprague-Dawley rats; oral 0.1 mg/kg): 0.80 ± 0.23 mM/mM
Urinary Sodium to Creatinine Ratio (Male Sprague-Dawley rats; oral 0.3 mg/kg): 0.37 ± 0.06 mM/mM
Urinary Sodium to Creatinine Ratio (Male Sprague-Dawley rats; oral 1.0 mg/kg): 0.63 ± 0.23 mM/mM
